Source: patent US20090159876A1, “ORGANIC SEMICONDUCTOR MATERIAL AND ORGANIC FIELD EFFECT TRANSISTOR” (MITSUBISHI CHEMICAL CORPORATION, priority 2005, published 2009)
Read-outs that look alike come from different tables or passages of the source.

Legend:
[1] = Evaluation of solubility in specific solvents at 30° C.; type: physicochemical
Experimental: The oligothiophene A (hexamer) was dissolved in each of toluene, xylene, ethylbenzene, mesitylene, cyclopentanone, cyclohexanone, methyl chloride, carbon tetrachloride, chlorobenzene, dichlorobenzene, trichlorobenzene, nitrobenzene, methyl ethyl ketone, benzoic acid esters, anisole, phenetole, butyl phenyl ether, methoxytoluene, and benzyl ethyl ether at 30° C., and each solubility was determined. […] In Table 1, the mark o indicates the case where the solubilities of 0.1% by weight and 0.3% by weight for each solvent were observed, and the mark X indicates the other case.

[2] = Evaluation of ionization potential of film by photoelectron spectrometer; type: physicochemical; details: film spin-coated from chloroform on quartz substrate (α-6T: film deposited under vacuum); solid state
Experimental: The ionization potential is preferably determined by the method of measuring a sample in a solid state through photoelectron spectroscopy. Examples of the simple devices include a photoelectron spectrometer, model AC-1 (or its successor device) available from Riken Keiki Co., Ltd.
The oligothiophene A (hexamer) (50 mg) prepared in Synthesis 4 was dissolved in chloroform (1 mL) to prepare a solution. This solution was spin-coated on a 2.5 by 2.5 cm^2 quartz substrate available from Furuuchi Chemical Corporation at 1000 rpm. A satisfactory film was produced. The ionization potential (Ip) of this film was determined with a photoelectron spectrometer Model PCR-101 available from Sumitomo Heavy Industries Advanced Machinery. As a reference, an α-6T film deposited on a quartz substrate under vacuum was used (See Comparative Example 1 described below). FIG. 4 is a graph of the ionization potentials observed. The ionization potential (Ip) of the oligothiophene A (hexamer) was 5.34 eV, while that of α-6T was 4.7 eV.

[3] = Evaluation of crystallinity of film by X-ray diffractometry; type: physicochemical; details: for Crystallinity of Film: In-Plane X-ray diffractometry of film
Experimental: X-ray diffractometry was conducted for the oligothiophene film formed of the oligothiophene A (hexamer) prepared in [Evaluation of Ionization Potential] using a RINT-2000/PC available from Rigaku Corporation.

[4] = usual value of representative thiophene materials; cited from earlier work
[5] = 30° C., toluene, xylene, ethylbenzene, mesitylene, cyclopentanone, cyclohexanone and other listed solvents

Row | SMILES | Solubility in Specific Solvents 0.1% by weight [1, 5] | Solubility in Specific Solvents 0.3% by weight [1, 5] | Ionization Potential [2] | Crystallinity of Film [3] | Crystallinity of film (in words) ([3]; In-Plane X-ray diffractometry of spin-coated film) | Solubility in Specific Solvents 0.1% by weight [1] | Solubility in Specific Solvents 0.3% by weight [1] | ionization potential (Ip) [4]
1 | CCCCCCc1ccc(-c2ccc(-c3sc(-c4cc(-c5ccc(CC)cc5)c(-c5ccc(-c6ccc(CCCCCC)s6)s5)s4)cc3-c3ccc(CC)cc3)s2)s1 [Example 1] | ◯ | ◯ | 5.34 eV | ◯ | crystalline semiconductor layer | – | – | –
2 | CCCCCCc1ccc(-c2ccc(-c3ccc(-c4sc(-c5cc(-c6ccc(CC)cc6)c(-c6ccc(-c7ccc(-c8ccc(CCCCCC)s8)s7)s6)s5)cc4-c4ccc(CC)cc4)s3)s2)s1 [Example 2] | – | – | 5.24 eV | ◯ | – | ◯ | ◯ | –
3 | CCCCCCc1ccc(-c2ccc(-c3ccc(-c4ccc(-c5sc(-c6cc(-c7ccc(CC)cc7)c(-c7ccc(-c8ccc(-c9ccc(-c%10ccc(CCCCCC)s%10)s9)s8)s7)s6)cc5-c5ccc(CC)cc5)s4)s3)s2)s1 [Example 3] | – | – | 5.26 eV | ◯ | – | ◯ | ◯ | –
4 | CCCCCCc1ccc(-c2ccc(-c3ccc(-c4ccc(-c5sc(-c6ccc(CCCCCC)s6)cc5-c5ccc(CC)cc5)s4)s3)s2)s1 [Example 5] | – | – | 5.24 eV | ◯ | – | ◯ | ◯ | –
5 | CCCCCCc1ccc(-c2ccc(-c3ccc(-c4ccc(-c5ccc(-c6sc(-c7cc(-c8ccc(CC)cc8)c(-c8ccc(-c9ccc(-c%10ccc(-c%11ccc(-c%12ccc(CCCCCC)s%12)s%11)s%10)s9)s8)s7)cc6-c6ccc(CC)cc6)s5)s4)s3)s2)s1 [Example 6] | ◯ | ◯ | 5.18 eV | ◯ | – | – | – | –
6 | CCCCCCc1ccc(-c2cc(-c3ccc(CC)cc3)c(-c3ccc(-c4ccc(-c5ccc(-c6sc(-c7cc(-c8ccc(CC)cc8)c(-c8ccc(-c9ccc(-c%10ccc(-c%11sc(-c%12ccc(CCCCCC)s%12)cc%11-c%11ccc(CC)cc%11)s%10)s9)s8)s7)cc6-c6ccc(CC)cc6)s5)s4)s3)s2)s1 [Example 7] | – | – | 5.46 eV | ◯ | – | ◯ | ◯ | –
7 | c1csc(-c2ccc(-c3ccc(-c4ccc(-c5ccc(-c6cccs6)s5)s4)s3)s2)c1 [α-6T, α-sezithiophene, reference compound] | – | – | 4.7 eV | ◯ | – | ◯ | ◯ | about 4.7 eV
